Consider one compound from US20250025451A1, “TREATMENT OF CANCER WITH KDM4 INHIBITORS” (Celgene Corporation, priority 2021, published 2025).

Series [1] has as its system PA0165F patient-derived pancreatic cancer organoid model. The series can be described thus: organoid colony formation and viability assay, PA0165F. The class given is cell-based, human. The procedure:
The IC50 values for Compound 1 inhibition of colony formation and viability were determined for the patient-derived colon cancer organoid models: SU60, T002C, SU62, SU34, SU103, T03SC, and SU106, patient-derived pancreatic cancer organoid models PA016SF, PA0143F, T016P, and T028P, and a patient-derived breast cancer organoid model FS5S3.
Colony formation and viability assays were performed in multiwell plates seeded with organoids using an in vitro culture system composed of a Matrigel layer, media containing a defined set of growth factors, and co-culture with Wnt3 A-secreting mouse embryonic fibroblasts. Assays were initiated by adding either DMSO as a negative control, or an inhibitor panobinostatat 100×IC50 concentration as a positive control, or serially diluted Compound 1. The cultures were incubated for 168 or 144 hours after which the number of viable organoids in each test well was assessed respectively using one of two detection methods: CTG or staining with calcein-AM followed by imaging and colony counting. Colony count or viability of cells treated with compound 1 was expressed as a percent of the negative control. Aggregated Percent of Control values were plotted against the corresponding Compound 1 concentration and the absolute IC50 value was determined from a non-linear regression curve as the concentration where inhibition was 50% of the control.

Series [2] deals with myeloid hematopoietic progenitor cells derived from human bone marrow. The series can be described thus: myeloid colony formation of hematopoietic progenitor cells. The class given is cell-based. The procedure: Compound 1 was evaluated for its effects on proliferation of erythroid and myeloid hematopoietic progenitor cells derived from human bone marrow at […] Technologies Inc. (Vancouver, BC, Canada).
Cells were thawed rapidly at 37° C. into DNAse I and then diluted in 10 mL of Iscove's Modified Dulbecco's medium containing 2% fetal bovine serum (IMDM+2% FBS) and washed by centrifugation (1200 rpm for 10 minutes at room temperature). The supernatant was discarded and the cell pellet resuspended in a known volume of IMDM+2% FBS. A nucleated cell count (3% glacial acetic acid) and viability assessment (trypan blue exclusive test) were performed.
Compound 1 and positive control (panobinostat) were diluted in DMSO and tested at concentrations ranging from 0.002 μM to 5 μM in final media. These dilutions provided the appropriate final test concentrations required for the test and control articles ([…], and 0.002 μM).
Test and control articles were incubated with human bone marrow hematopoietic progenitor cells. After 14 days, cell colonies were assessed.
To calculate the concentration of 50% and 90% inhibition of colony growth (IC50 and IC90) for each test article, a dose response curve was generated plotting the log of the test article concentration versus the percentage of control colony growth using GraphPad Prism. […] The IC50 and IC90 values for both test and control articles were derived from an interpolation of the curve fit. In cases where the IC50/90 value reported by GraphPad Prism is a value beyond the range of concentrations that were actually tested, if this value is more than 4 times the highest concentration tested, or where GraphPad Prism cannot calculate an IC50/90 value, notations of >5 μM (for test article compound 1) are used.

Series [3] relates to immature and mature cell markers in SU60 xenograft tumor cells. The series can be described thus: single cell gene expression analysis (RT-qPCR) of SU60 xenograft tumors. The class given is in vivo. To be noted: treated vs vehicle. The text has this:
FIG. 22 illustrates the heatmap representation of single cells gene expression analysis (RT-qPCR) from SU60 xenograft tumors treated with vehicle control or Compound 1. A) Heatmap representation of single cells gene expression analysis (RT-qPCR) from SU60 xenograft tumors treated with vehicle control or Compound 1. Gene expression levels are colored-coded with red for high expression, green low expression and gray not expressed. Three clusters of cells were identified based on shared patterns of gene expression using a gene-set of immature and mature cell markers. […] The top dendrogram clusters genes with similar expression pattern across all cells. Gene expression (in Ct values) was mean-centered at 0 and divided by 2.5 time the standard deviation. B) This graph represents the total number of vehicle-treated and compound 1 treated cells within each cluster. P-values (Fisher's exact test) are represented on top of the bars.
Vehicle control and Compound 1-treated samples were characterized by single cell transcriptional profiling with a gene-set designed to discriminate immature colon progenitor cells and more mature cell-types (Dalerba, 2011). […] Using hierarchical clustering analysis, three clusters based on expression of a subset of immature and mature cell markers were identified. […]

Where two headings read alike, the source gives them in different places.

A word on the IC50: it is the concentration needed to halve the response being measured. As a reminder, the IC90 is the point of the concentration-response curve where the effect stands at 90%. Low values mean greater potency, high ones weaker potency. Take `CC(C)c1ccc(N(C)c2ccc3c(c2)OCC[C@H]3CNc2cnccc2C(=O)O)cc1` [Compound 1, 3-({[(4R)-7-{methyl[4-(propan-2-yl)phenyl]amino}-3,4-dihydro-2H-1-benzopyran-4-yl]methyl}amino)pyridine-4-carboxylic acid]: the concentration for half-maximal inhibition (IC50) in series [1] (Homo sapiens, PA0165F pancreatic carcinoma model) is less than 0.03 µM; in series [1] (PA0165F human pancreatic carcinoma organoid, 144 hrs, Colony Counts), 0.016 µM; in series [1] (PA0165F human pancreatic carcinoma organoid, 168 hrs, CTG), 0.029 µM; in series [2] (336 h, human bone marrow progenitor cells, 14 days, read-out: IC50, inhibition of myeloid colony formation), more than 5 µM; in series [2] (336 h, human bone marrow progenitor cells, colony growth after 14 days, read-out: Myeloid IC50), more than 5 µg/mL. Moreover, the IC90 in series [2] (336 h, human bone marrow progenitor cells, colony growth after 14 days) is more than 5 µg/mL. The “concentrations at which colony morphology (size and density) was slightly compromised” value in series [2] (myeloid derived colonies) is not below 1.67 μM. The “effect on colony formation compared to 0.1% DMSO” value in series [2] (progenitor cells from normal human bone marrow, p>0.01) was “no significant effect”. Also, in series [3] (p=0.01), the “change in the proportion of progenitor-like cells” value is reported as “significant reduction”. Besides, the “change in number of intermediate-like and differentiated-like cells” value in series [3] (p=0.07) was “increase was not significant”.
